Measured values reported in ChEMBL document CHEMBL1212712, “A pulse at the heart of targeted therapy” (Nat Chem Biol, 2009).

Experiments:
[1] = Half life in chronic myeloid leukemia patient; assay type: ADME, organism-based; conditions: human, in vivo
[2] = Cmax in chronic myeloid leukemia patient; assay type: ADME, organism-based; conditions: human, in vivo
[3] = Antiproliferative activity against human CML cells; assay type: functional, cell-based; conditions: Leukemia cell

## Cc1nc(Nc2ncc(C(=O)Nc3c(C)cccc3Cl)s2)cc(N2CCN(CCO)CC2)n1.O [DASATINIB]
[1]
  half-life: 180 min
[2]
  Cmax: 200 nM
[3]
  IC50: 1 nM

## Cc1ccc(NC(=O)c2ccc(CN3CCN(C)CC3)cc2)cc1Nc1nccc(-c2cccnc2)n1 [IMATINIB]
[2]
  Cmax: 2000 nM
[3]
  IC50: 350 nM
